In article PMC6013238, “Development of novel NEMO-binding domain mimetics for inhibiting IKK/NF-κB activation” (PLoS Biology, 2018):
Several values for one entry are separate records, joined by “and”; a condition that tells them apart may be missing. Equal entries are not always repeated.

Key:
[1] = tested on: HEK293 cells; details: Fig 2D; 100 μM, 24 h
Procedure: (A) HEK293 cells stably expressing NF-κB luciferase reporter were pretreated with indicated small molecules at 100 μM for 30 min, followed by stimulation with TNF-α (10 ng/ml) for 3 h. Luciferase activity was normalized to untreated stimulated control cells. […] (B) The dose-dependent response of ZINC12909780 was tested by NF-κB luciferase assay in HEK293 cells. Three independent experiments were performed, and data shown represent mean +/− SD. […] (D) HEK293 cells were cultured in the presence of 100 μM of indicated derivatives for 24 h, and cell survival was determined by MTT assay. Cell viability was calculated by normalizing to untreated cells. (E) Dose-dependent inhibitory effects were determined for ZINC5 at 0, 25, 50, and 100 μM by using NF-κB luciferase assay. (F) HEK293 were cultivated in the presence of ZINC5 at listed concentrations for 24 h, and cell survival was assessed by MTT assay. Data represent the mean +/− SD from 4–5 independent experiments. *P < 0.05; **P < 0.01; ***P < 0.001. Underlying data can be found in S1 Data. HEK293, human embryonic kidney 293 cells; MTT, 3-(4,5-dimethylthiazol-2-yl)-2,5-dephenyltetrazolium bromide colormetric assay for assessing cell metabolic activity; NF-κB, nuclear factor κB; TNF-α; tumor necrosis factor α; SD, standard deviation.
HEK293 cells were grown in a 96-well plate at 3 × 10^4 cells/well in triplicate and treated with DMSO or listed small molecules at indicated concentrations for 24 h. Cell survival was determined by adding 20 μl of 5 mg/ml MTT (thiazolyl blue tetrazolium bromide) to each well, followed by incubation in 37 °C for 3 h. Media were removed, and purple formazan was dissolved in 100 uL of DMSO. Absorbance was measured at 590 nm on a microplate reader (PerkinElmer, Waltham, MA). Cell viability was calculated by normalizing values to untreated controls.

[2] = tested on: NF-κB activation; experiment: NF-κB firefly luciferase reporter assay, TNF-α-stimulated stably transfected HEK293 cells; assay type: cell-based, human; details: TNF-α 10 ng/ml 3 h, vehicle = 100, single experiments; for NF-κB luciferase activity normalized to vehicle: Fig 2C, derivatives at 100 μM; for NF-κB luciferase activity normalized to untreated stimulated control: Fig 2A, 100 μM, 30 min pretreatment
Procedure: To determine whether the small molecules identified by the in silico screening inhibit NF-κB activation, a HEK293 cell line stably expressing a luciferase reporter driven by a synthetic, NF-κB-dependent promoter was utilized. To induce NF-κB activation, cells were treated with 10 ng/mL of TNF-α and harvested 3 h post treatment for analysis of luciferase activity. […] To determine whether ZINC12909780 inhibits NF-κB in a dose-dependent manner, concentrations were tested at 0, 6.25, 25, 50, and 100 μM.
Luciferase activity was normalized to untreated stimulated control cells. […] Cell viability was calculated by normalizing to untreated cells. […] Underlying data can be found in S1 Data.
HEK293 cells stably transfected with luciferase reporter plasmid driven by NF-κB were seeded in 96-well plates in triplicate and pretreated with DMSO or varying small molecules at indicated concentration for 30 min, followed by the stimulation of 10 ng/ml of TNF-α for 3 h. Cells were washed with PBS once and harvested in Passive Lysis Buffer (Promega, Madison, WI). Luciferase assay (Promega) was performed by using a luminometer according to the manufacturer’s instructions.

[3] = tested on: NF-κB target genes; experiment: qRT-PCR of NF-κB target genes in LPS-stimulated Raw 264.7 cells; assay type: cell-based, mouse; details: Fig 4C, LPS 1 μg/ml 2 h, IKKi VII 2 μM, 8K-NBD 200 μM, SR compounds 50 μM, relative to no LPS
[4] = tested on: IL-6 production; experiment: Mouse IL-6 ELISA of supernatant of LPS-stimulated Raw 264.7 cells; assay type: cell-based; details: Fig 4D; IKKi VII 2 μM; LPS 1 μg/ml 24 h
Procedure: Fig 4 Modified lead NBD mimetics inhibit TNF-α- and LPS-induced NF-κB activation by disrupting the association between NEMO and IKKβ. (A) Structures of top NBD mimetics. (B) Measurement of NF-κB activation in response to TNF-α by using Dual-luciferase reporter assays. HEK293 cells cotransfected with NF-κB luciferase reporter and SV40-Renilla plasmids were pretreated with DMSO or listed small molecules at 0, 25, 50, 100, and 150 μM for 30 min, followed by the induction of TNF-α for 3 h. Data shown are representative of 2–3 independent experiments. […] Raw 264.7 cells were pretreated with indicated drugs for 30 min and then stimulated with 1 μg/ml of LPS for 2 h. Cells were then harvested for RNA extraction and qRT-PCR analysis. Drug concentrations used are as follows: IKKi VII (2 μM), 8K-NBD peptide (200 μM), SR12343 (50 μM), SR12460 (50 μM), SR12454 (50 μM), and SR11481 (50 μM). Data are representative of 2 independent experiments. […] Raw 264.7 cells pretreated with DMSO or drugs at indicated concentrations were exposed to 1 μg/ml of LPS for 24 h, and supernatant was collected for ELISA analysis of mouse IL-6. *P < 0.05; **P < 0.01. Underlying data can be found in S1 Data. HEK293, human embryonic kidney 293 cells; IKK, IκB kinase; IL-6, interleukin 6; LPS, lipopolysaccharide; NBD, NEMO-binding domain; n.d., nondetectable; NEMO, NF-κB essential modulator; NF-κB, nuclear factor κB; qRT-PCR, […] real-time polymerase chain reaction; TNF-α; tumor necrosis factor α. TEXT PRINTED IN THE PICTURE: (D) ikki VII: mIL-6 (ng/ml): n.d. | (D) SR12460: mIL-6 (ng/ml): n.d. (50μM) | (D) SR12454: mIL-6 (ng/ml): n.d. (50μM) DOUBTS OF THE COPYIST ABOUT THIS PICTURE: Panel D: the only printed results are the three "n.d." labels. They stand in place of bars and are assigned to ikki VII, SR12460 50μM and SR12454 50μM by their position on the axis. All other results are shown only as bars, with no printed numbers.
To confirm the qRT-PCR results, the levels of IL-6 production in Raw 264.7 cells activated by LPS were analyzed by ELISA.
Raw 264.7 cells were grown in 96-well plates and pretreated with vehicle, IKKi VII (2 μM), and small molecules (at indicated concentration) for 1 h, followed by the stimulation with 1 μg/ml of LPS. Supernatant was collected 24 h later for ELISA analysis. IL-6 concentration was measured using a mouse IL-6 ELISA kit (BD) according to the manufacturer’s instructions.

Row | Structure (SMILES) | Cell viability normalized to untreated cells (MTT) [1] | NF-κB luciferase activity normalized to vehicle [2] | further results
1 | O=C(COC(=O)c1ccc(Cl)nc1)Nc1ncc(Cl)cc1Cl [ZINC11] | 77 and 62 and 78 and 72 | 90.11 and 74.66 and 111.57 and 92.82 and 119.55 | 
2 | O=C(COC(=O)c1ccccn1)Nc1ncc(C(F)(F)F)cc1Cl [ZINC10] | 89 and 65 and 84 and 79 | 108.77 and 101.36 and 116.46 and 94.96 and 126.1 | 
3 | NC(=O)COC(=O)c1cccnc1Nc1ccccc1F [ZINC13] | 82 and 81 and 84 and 90 | 100.33 and 91.05 and 121.31 and 95.5 and 122.97 | 
4 | O=C(COC(=O)c1ncc(Cl)c(Cl)c1Cl)Nc1ccc(Cl)cn1 [ZINC1] |  | lowered NF-κB activity robustly | 
5 | O=C(COC(=O)c1ccc(F)cc1F)Nc1ccc(Cl)cn1 [ZINC12] | 94 and 85 and 87 | 95.61 and 79.06 and 109.79 and 80.64 and 92.59 | 
6 | O=C(c1ccc(Nc2nccc(-c3cc4ccccc4s3)n2)cc1)N1CCC(N2CCCC2)CC1 [IKKi VII, reference compound] |  | lowered NF-κB activity robustly | iNOS mRNA expression (qRT-PCR) [3]: failed to down-regulate iNOS expression; COX2 mRNA expression (qRT-PCR) ([3]; listed as ikki VII): 169.382 and 169.611 and 190.029; IL6 mRNA expression (qRT-PCR) ([3]; listed as ikki VII): 61.5373 and 59.8482 and 47.3662; IL-1b mRNA expression (qRT-PCR) ([3]; listed as ikki VII): 67.7567 and 72.7507 and 75.5037; TNFa mRNA expression (qRT-PCR) ([3]; listed as ikki VII): 61.1388 and 68.3653 and 68.6282; iNOS mRNA expression (qRT-PCR) ([3]; listed as ikki VII): 24.1042 and 20.2843 and 19.9052; ikBa mRNA expression (qRT-PCR) ([3]; listed as ikki VII): 8.329 and 8.125 and 9.136; mIL-6 in supernatant (ELISA) [4]: 0 ng/mL
7 | O=C(COC(=O)c1ccc2ccccc2c1)Nc1ncc(C(F)(F)F)cc1Cl [ZINC4] | 62 and 80 and 74 and 70 | 99.2 and 99.51 and 98.62 and 84.84 and 111.34 | 
8 | O=C(COC(=O)c1c2ccccc2cc2ccccc12)Nc1ncc(C(F)(F)F)cc1Cl [ZINC7] | 73 and 51 and 70 and 69 | 99.14 and 98.45 and 107.93 and 94.89 | 
9 | O=C(COC(=O)c1cccnc1Cl)Nc1ncc(Cl)cc1Cl [ZINC6] | 90 and 71 and 78 and 92 | 114.53 and 96.57 and 113.68 and 101.67 and 104.3 | 
10 | O=C(NN=C1CCN(Cc2ccccc2)CC1)[C@H]1C[C@@H]1c1ccccc1 [ZINC05682974] |  |  | NF-κB luciferase activity normalized to untreated stimulated control [2]: remained unchanged; NF-κB luciferase activity normalized to untreated stimulated control ([2]; listed as ZINC05682947): 105.454 and 97.4199
11 | O=C(COC(=O)c1cccc2ccccc12)Nc1ncc(C(F)(F)F)cc1Cl [ZINC8] | 51 and 82 and 57 and 61 | 56.26 and 53.09 and 63.7 and 43.79 and 59.31 | NF-κB luciferase activity normalized to vehicle ([2]; listed as Zinc8): lowered NF-κB activity robustly
12 | O=C(COC(=O)Cc1ccccc1)Nc1ncc(Cl)cc1Cl [ZINC9] | 92 and 86 and 88 | 67.06 and 59.84 and 88.3 and 70.04 and 84.32 | NF-κB luciferase activity normalized to vehicle ([2]; listed as Zinc9): lowered NF-κB activity robustly
13 | O=C(COC(=O)c1cccc(F)c1)Nc1ccc(Cl)cn1 [ZINC14] | 60 and 64 and 68 and 84 | 108.83 and 98.08 and 117.73 and 100.75 and 124.98 | 
14 | O=C(COC(=O)c1nc(Cl)ccc1Cl)Nc1ncc(Cl)cc1Cl [ZINC2] |  | 87.9 and 94.94 and 107.72 and 95.11 and 110.04 | 
15 | O=C(COC(=O)c1ccc(F)cc1)Nc1ccc(Cl)cn1 [ZINC15] | 58 and 77 and 86 | 103.61 and 97.73 and 103.85 and 95.58 and 115.08 | 
16 | O=C(COC(=O)c1nc(Cl)ccc1Cl)Nc1ccc(Cl)cn1 [ZINC3] | 97 and 81 and 75 | 111.63 and 103.8 and 115.96 and 89.11 and 115.8 | 
